Several values for one entry are separate records, joined by “and”; a condition that tells them apart may be missing. Identical values can stand only once. Like-named read-outs stand apart in the source and are kept apart here.
Tests used:
[1] = drug in microspheres, literature values, cited from earlier work
[2] = cited from earlier work
[3] = 46-day purmorphamine release study from PCL microspheres in PBS; assay type: physicochemical
Description: A 46-day release study was performed to determine the release kinetics of purmorphamine. Each sample contained 10 mg of microspheres and 1 ml of PBS placed on 1.5 ml micro tubes (Axygen®). Samples for each day of collection (n=3) were placed on a VWR® mini shaker at 330 rpm at 37° C. and were collected every 4 days. After collection, samples were washed with de-ionized water and freeze-dried for further analysis. The drug was extracted from the microspheres and then quantified with high-performance liquid chromatography (HPLC) to estimate the puro concentration in the microspheres. Next, 10 mg of microspheres was placed in 1.5 ml microtubes in triplicate. […] The samples were then placed on the vortex mixer (Eppendorf® MixMate®) at 2500 rpm for 5 minutes. […] The samples were then placed at −80° C. for 5 minutes followed by centrifugation (Eppendorf 5424) at 1500 rpm for five minutes. The samples were filtered using 0.2 μm PTFE syringe filters before adding the supernatant to amber vials. HPLC was performed using an Agilent 1200 equipped with quaternary pump and diode-array detector (DAD) to quantify the amount of puro present in samples. A standard of puro with eleven dilutions of a stock solution diluted in ACN was used to determine the concentrations of the samples. The column used was an Eclipse Plus C18 (Agilent) with 5 μm particle size, 4.6 mm internal diameter (ID), and was 150-mm long with similar phase and ID guard column. Samples were analyzed at 300 nm after mass spectroscopy was used to generate a spectrum for puro. Mass spectroscopy information was acquired using an Ultimate 3000 HPLC system connected to an Orbitrap (Thermo Fisher Scientific). The system was used in direct infusion mode with no separation. Solvents used for this analysis were HPLC-grade ACN mixed with […] dispensed from a Milli-Q integral purification system (Millipore, ON, Canada). Both contained 0.1% V/V trifluoroacetic acid (TFA) (Fisher Scientific, Hampton, NH). […] ChemStation software was used for data analysis with auto-integration adjusted manually when needed.

[4] = Guggulsterone encapsulation efficiency (extraction, HPLC-MS); assay type: physicochemical; settings: PCL microspheres, 0.6 μg/mg GS/PCL; of total GS added
Description: The amount of GS encapsulated per unit weight of microspheres was determined by extracting the drug from the fabricated microspheres. A measured amount of lyophilized microspheres was placed in a 1.5 mL propylene microtube, and 200 μL of ACN was added to each sample. The samples were vortexed at 3000 rpm for 30 seconds, vortexed for 5 minutes at 350 rpm (Eppendorf® MixMate®), and mixed with a micropipette for 10 seconds. These mixing steps were repeated twice to dissolve the PCL. Next, 1000 μL of additional ACN was added to the samples and mixed by micropipette for 10 seconds and then vortexed at 3000 rpm for 30 seconds. The solution was then centrifuged at 22° C. and 13000 rpm for 5 min using an Eppendorf 5424 Microcentrifuge. Thereafter, 1000 μL of the supernatant was transferred to a microtube and diluted as necessary for high performance liquid chromatography-mass spectrometry (HPLC-MS). The concentration of the drug in the sample was determined using HPLC-MS (Ultimate 3000 MSQ, Thermo Scientific with Chromeleon™ software) and run against a GS standard composed of five dilutions of a stock solution composed of GS dissolved in ACN. […]

[5] = In vitro guggulsterone release study from PCL microspheres in PBS; assay type: physicochemical
Description: In vitro release studies were performed in triplicate. Ten milligrams of microspheres was suspended in 1 mL of PBS in a microtube. The tubes were then loaded onto a Sarstedt Sarmix mr-1 tube rotator and incubated at 37° C. The PBS supernatant for each tube was replaced every 2 days while tubes were removed and collected from the rotator at the following predetermined time points: day 2, 4, 8, 12, 16, 20, 24, 28, 36, and 44. For the collected tubes, the PBS supernatant was removed, and the microspheres were washed with deionized water, lyophilized, and weighed. The remaining GS concentration inside the microspheres was determined as previously described by dissolving microspheres with DCM, extracting the drug/precipitating PCL with 100% ethanol, and reading the absorbance at 255 nm using a Tecan Infinite® M200Pro plate reader (Gomez, et al., 2015). The amount of GS released was calculated by subtracting the GS remaining in the microspheres from the theoretical GS present in each amount of microspheres at day 0. Percentages of the drug that were assumed to be released for each sample day were calculated by comparing drug amounts leftover and initial amounts of the drug inside the microspheres to create a cumulative release graph.

[6] = tested on: hiPS aggregates; test: Flow cytometry of βIII-tubulin (TUJ1), Olig2, GFAP in hiPS aggregates (Example 2); assay type: cell-based, human; parameters: unit of the concentration uncertain
Description: ReLeSR™ was used to select and remove undifferentiated hiPSs from the wells. Uniform hiPS aggregates were formed by adding a single cell suspension in STEMdiff™ Neural Induction Medium of 1×106 hiPSs to wells in AggreWell™ 800 plates and centrifuged for 5 min at 100×g to deposit the cells at the bottom of each microwell. Before incorporation with the cells, the microspheres were sterilized by low power air-plasma treatment (Harrick PDC-32G) for 30 seconds as described previously. When forming microsphere-incorporated hiPS aggregates, 0.5 mg of microspheres suspended in STEMdiff™ Neural Induction Medium was added to each AggreWell™ 800 well for a total of 2 mL of media in each well and centrifuged for 5 min at 100×g (FIGS. 11A-11B). The aggregates in the AggreWell™ 800 plates were maintained in 2 mL of STEMdiff™ Neural Induction Medium with daily media changes for 5 days. On day 5, the aggregates were harvested for immunocytochemistry or transferred to PLO/laminin-coated 24-well plates at a single aggregate per well for the remaining duration of the cell study (until day 12 or day 20). […] Negative control treatments contained aggregates without microspheres and media without soluble drug added. […]
Cell marker expression was quantified with flow cytometry on day 20 for β-tubulin III, Olig-2, and GFAP. […]

[7] = tested on: hiPS aggregates; test: Neurite morphology analysis of hiPS aggregates, IncuCyte (Example 2); assay type: cell-based, human; settings: day 12
Description: ReLeSR™ was used to select and remove undifferentiated hiPSs from the wells. Uniform hiPS aggregates were formed by adding a single cell suspension in STEMdiff™ Neural Induction Medium of 1×106 hiPSs to wells in AggreWell™ 800 plates and centrifuged for 5 min at 100×g to deposit the cells at the bottom of each microwell. Before incorporation with the cells, the microspheres were sterilized by low power air-plasma treatment (Harrick PDC-32G) for 30 seconds as described previously. […]
Immunostained cell aggregates were imaged with an IncuCyte® ZOOM automatic live-cell imaging system (Essen BioScience, Ann Arbor, MI) at 10× magnification. Quantification of the morphological metrics of neurite length and branch points was performed using IncuCyte® ZOOM Software (2016A). Using the NeuroTrack™ software module, day 12 and day 20 green channel fluorescence (anti-beta-tubulin III positive) images were analyzed by masking the total neurite coverage and calculating the average length and branch points with the same processing definition. The cell aggregate area was analyzed for day 12 images using a NeuroTrack™ software processing definition, whereas a Basic Analyzer processing definition (used for confluence masking) was used to analyze the day 20 images. […]

[8] = Degradation of fibrin scaffolds containing drug (Example 3)
[9] = quoted in Example 1 from ref [42]; cited from earlier work
[10] = cited from earlier work; remark: listed apart in the source
[11] = ref [50]; cited from earlier work
[12] = if release rate consistent beyond 44 days

## O=C1CN=C(c2ccccc2Cl)c2cc([N+](=O)[O-])ccc2N1 [Clonazepam]
[1]
  encapsulation efficiency, previously reported: 72.6-95.1%

## CC1=C(/C=C/C(C)=C/C=C/C(C)=C/C(=O)O)C(C)(C)CCC1 [RA, retinoic acid]
[1]
  encapsulation efficiency, previously reported: 60.0%
[1]; listed as retinoic acid
  encapsulation efficiency, previously reported: ~60%
[2]; day 28, RA concentration 7.5 times greater
  cumulative RA release from PCL microspheres: ~53%
[2]; day 28, lower RA concentration
  cumulative RA release from PCL microspheres: 28%

## CC(=O)OCC(=O)[C@@]1(O)CC[C@H]2[C@@H]3CCC4=CC(=O)CC[C@]4(C)[C@H]3[C@@H](O)C[C@@]21C [hydrocortisone 21-acetate]
[1]
  encapsulation efficiency, previously reported: ~55%

## C[C@]12CCC(=O)C=C1CC[C@@H]1[C@@H]2[C@@H](O)C[C@@]2(C)[C@H]1CC[C@]2(O)C(=O)CO [hydrocortisone]
[1]
  encapsulation efficiency, previously reported: ~9%

## c1ccc2c(Oc3nc(Nc4ccc(N5CCOCC5)cc4)c4ncn(C5CCCCC5)c4n3)cccc2c1 [puro, purmorphamine]
[3]; day 28
  cumulative puro release: 68%
[3]; day 44
  cumulative puro release: ~87%
[3]; day 46, of theoretically encapsulated drug
  cumulative puro release: 91%
[3]; from 0.34 mg of puro-loaded microspheres added to cell aggregates
  puro released on average per day: ~0.0748 µg
[3]; from 10 mg of microspheres
  puro released every day: 2.2 µg

## guggulsterone [GS]
[4]
  GS encapsulation efficiency: 42.4±3.5% and ~42%
[5]; 0.5 mg of microspheres per aggregate-forming well
  concentration of GS released: ~0.93 ng/mL
[5]; day 28
  cumulative GS release: ~45%
[5]; day 44 (final day), of drug theoretically encapsulated
  cumulative GS release: ~60% and ~62%
[5]; from 10 mg of microspheres, slope of graph
  average release of GS per day: 37 ng
[5]; [12]
  additional duration of GS delivery beyond 44 days: 27 days
  total duration of drug release: 71 days
[5]; in 10 mg of microspheres
  total amount of guggulsterone encapsulated: ~2550 ng
[5]; in 10 mg of microspheres, day 0
  theoretical total amount of drug initially in each sample: ~2.5 µg
[6]; day 20, soluble GS at 0.25 µM
  TUJ1 expression (flow cytometry): ~4%
[6]; day 20, soluble GS at 2.5 µM
  TUJ1 expression (flow cytometry): ~7%
[7]
  neurite length per cell cluster area: greater neurite length compared to the negative control
[8]
  degradation of fibrin scaffolds containing the drug: degraded much faster than samples containing RA
[9]
  GS encapsulation efficiency, previously reported: 42.4%
[10]; day 28, quoted in Example 1 from refs [40, 42]
  cumulative GS release, previously reported: 45%
[10]; day 44, quoted in Example 1 from refs [40, 42]
  cumulative GS release, previously reported: 55%
[11]
  susceptibility to degradation: susceptible to degradation, including photodegradation

Reference: patent US20250283035A1, “MORPHOGENIC COMPOUND-RELEASING MICROSPHERES AND USE IN BIOINK” (UVic Industry Partnerships Inc., priority 2018, published 2025)
